Laboratory results as given in ChEMBL document CHEMBL3137667, “[Drug-induced liver injury; fourteenth updated edition of the bibliographic database of liver injuries and related drugs]” (Gastroenterol Clin Biol, 2004).

How the values were obtained:
[1] = Highest frequency of moderate liver toxicity observed during clinical trials, expressed as a percentage. [column '% BIOL' in source]; conditions: human
[2] = Highest frequency of acute liver toxicity observed during clinical trials, expressed as a percentage. [column '% AIGUE' in source]; conditions: human
[3] = Presence of at least one case with successful reintroduction. [column 'REINT' in source]; conditions: human
[4] = Comments (NB not yet translated). [column 'COMMENTAIRES' in source]; conditions: human
[5] = Times to onset, minimal and maximal, observed in the indexed observations. [column 'DELAI' in source]; conditions: human
[6] = human, serum
[7] = human
[8] = human; remark: listed apart in the source
[9] = human; remark: listed apart in the source
[10] = human, serum, 4383 h
[11] = human; remark: listed apart in the source
[12] = human; remark: listed apart in the source
[13] = human; remark: listed apart in the source
[14] = human; remark: listed apart in the source
[15] = human; remark: listed apart in the source
[16] = human; remark: listed apart in the source
[17] = Proposed mechanism(s) of liver damage. [column 'MEC' in source]; conditions: human
[18] = human, serum; remark: listed apart in the source
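Wherever Hepatotoxicity (association with vascular disease) is given: count of indexed literature references reporting vascular liver injury in humans, e.g. peliosis hepatitis, hepatic veno-occlusive disease or Budd-Chiari syndrome.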
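Wherever Hepatotoxicity (benign tumour) is given: value is a count of indexed literature references citing a benign tumour confirmed by histopathology.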
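Wherever Hepatotoxicity (choleostasis) is given: human cholestatic liver injury, shown by histopathology or by peak ALT or AST elevation over alkaline phosphatase ratio below 2, value counts indexed literature reports.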
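Wherever Hepatotoxicity (chronic liver disease) is given: chronic liver injury confirmed by histopathology or persistently raised serum aminotransferase activity beyond 6 months, value given as the count of indexed literature references.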
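Wherever Hepatotoxicity (cirrhosis) is given: value is a count of indexed literature references reporting cirrhosis confirmed by histopathology.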
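Wherever Hepatotoxicity (cytolytic) is given: human cytolytic liver injury, shown by histopathology or by a ratio above 5 of peak ALT or AST elevation to alkaline phosphatase elevation, value counts indexed references.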
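Wherever Hepatotoxicity (granulomatous hepatitis) is given: value is a count of indexed literature references reporting granulomatous liver disease confirmed by histopathology.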
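Wherever Hepatotoxicity (malignant tumour) is given: malignant tumour confirmed by histopathology, value gives the count of indexed literature references reporting it.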
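Wherever Hepatotoxicity (severe hepatitis) is given: human clinical data: severe hepatitis, meaning potentially life-threatening liver failure or clinically observed cases, the value counts how many indexed literature references report it.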
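Wherever Hepatotoxicity (steatosis) is given: steatosis confirmed by histopathology, value is the count of indexed references.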

| Molecule | Hepatotoxicity (moderate) ([1]; Liver) [%] | Hepatotoxicity (acute) ([2]; Liver) [%] | Hepatotoxicity (successful reintroduction) [3] | Hepatotoxicity (time to onset) [5] | Hepatotoxicity (moderate) [6] | Hepatotoxicity (cytolytic) [7] | Hepatotoxicity (choleostasis) [8] | Hepatotoxicity (severe hepatitis) ([9]; Liver) | Hepatotoxicity (chronic liver disease) [10] | Hepatotoxicity (cirrhosis) [11] | Hepatotoxicity (granulomatous hepatitis) [12] | Hepatotoxicity (association with vascular disease) [13] | Hepatotoxicity (steatosis) [14] | Hepatotoxicity (malignant tumour) [15] | Hepatotoxicity (benign tumour) [16] | Hepatotoxicity (moderate) [1] [%] | Hepatotoxicity (acute) [2] [%] | Hepatotoxicity (mechanism) [17] | Hepatotoxicity (acute) [18] | Hepatotoxicity (severe hepatitis) [9] | other results |
| --- | --- | --- | --- | --- | --- | --- | --- | --- | --- | --- | --- | --- | --- | --- | --- | --- | --- | --- | --- | --- | --- |
| CC(C)(C)c1ccc(C(O)CCCN2CCC(C(O)(c3ccccc3)c3ccccc3)CC2)cc1 (centres undefined) [TERFENADINE] | 19.2 | 0 | yes | 4 weeks - 5 months | 1 | 2 | 2 | 0 | 0 | 0 | 0 | 0 | 0 | 0 | 0 | – | – | – | – | – | Hepatotoxicity (comment) [4]: DESTRUCTION_VB |
| INTERFERON GAMMA-1A | – | – | yes | 6 days - 3 months | 50 | 2 | 0 | – | 0 | 0 | 0 | 0 | 0 | 0 | 0 | 65 | 0 | Dose-dependant | 3 | 1 | – |
| CCOC(N)=O | – | – | yes | 1 year - 2 years | 0 | 5 | 1 | – | 0 | 1 | 0 | 3 | 0 | 0 | 0 | 0 | 0 | Dose-dependant | 5 | 4 | – |
| Cc1oncc1C(=O)Nc1ccc(C(F)(F)F)cc1 [LEFLUNOMIDE] | – | – | yes | 4 weeks - 20 months | 36 | 5 | 0 | – | 0 | 1 | 0 | 0 | 1 | 0 | 0 | 56.7 | 10 | Dose-dependant | 6 | 3 | – |
| Cc1cccc(Nc2ccccc2C(=O)O)c1C [MEFENAMIC ACID] | 0 | 0 | yes | 2 weeks | 0 | – | – | 1 | 0 | 0 | – | 0 | 0 | 0 | 0 | – | – | – | 3 | – | Hepatotoxicity (mechanism) ([17]; Liver): Allergic; Hepatotoxicity (cytolytic) ([7]; Liver): 2; Hepatotoxicity (choleostasis) ([8]; Liver): 1; Hepatotoxicity (granulomatous hepatitis) ([12]; Liver): 0 |
| COC(=O)[C@H](c1ccccc1Cl)N1CCc2sccc2C1 [CLOPIDOGREL] | 3 | 0 | yes | 4 days - 5.5 months | 2 | – | – | 0 | 0 | 0 | – | 0 | 0 | 0 | 0 | – | – | – | 5 | – | Hepatotoxicity (mechanism) ([17]; Liver): Allergic; Hepatotoxicity (cytolytic) ([7]; Liver): 4; Hepatotoxicity (choleostasis) ([8]; Liver): 1; Hepatotoxicity (granulomatous hepatitis) ([12]; Liver): 0 |
| CC(=O)Oc1cc(C(C)C)c(OCCN(C)C)cc1C [MOXISYLYTE] | – | – | yes | 8 days - 3 months | 1 | 5 | 1 | – | 0 | 0 | 0 | 0 | 0 | 0 | 0 | 0 | 0 | Allergic, Dose-dependant | 5 | 0 | – |
| CC(C)C[C@H]1C(=O)N2CCC[C@H]2[C@]2(O)O[C@](NC(=O)[C@@H]3C=C4c5cccc6[nH]c(Br)c(c56)C[C@H]4N(C)C3)(C(C)C)C(=O)N12 [BROMOCRIPTINE] | – | – | yes | 4 days - 2 months | 6 | 2 | 0 | – | 0 | 0 | 0 | 0 | 0 | 0 | 0 | 22 | 0 | Dose-dependant | 2 | 0 | – |
| NCC(=O)CCC(=O)O [AMINOLEVULINIC ACID] | – | – | yes | 3 days | 7 | 0 | 0 | – | 0 | 0 | 0 | 0 | 0 | 0 | 0 | 66.7 | 0 | Dose-dependant | 0 | 0 | – |
| CCCCCCCCNC(C)C(O)c1ccc(SC(C)C)cc1 (centres undefined) [SULOCTIDIL] | – | – | yes | 1 week - 1 year | 3 | 7 | 3 | – | 1 | 4 | 0 | 0 | 1 | 0 | 0 | 15 | 0.5 | Allergic | 8 | 2 | – |
